# Data from patent publication US20260334439A1, “BCAT2 INHIBITORS” (Agios Pharmaceuticals, Inc., priority 2023, published 2026).
# How the values were obtained:
# BCAT2 [1] = biological target: T1, BCAT2 (Homo sapiens, UniProt O15382); assay: BCAT2 cell inhibition using engineered A549 cells (MUT KO, BCAT1 KO; 13C6-KMV formation by LC-MS/MS); assay type: cell-based; set-up: expressed endogenous BCAT2; endogenous in cells; host or cells: A549 cells, MUT knockout and BCAT1 knockout
# T1 sequence (O15382 28-392): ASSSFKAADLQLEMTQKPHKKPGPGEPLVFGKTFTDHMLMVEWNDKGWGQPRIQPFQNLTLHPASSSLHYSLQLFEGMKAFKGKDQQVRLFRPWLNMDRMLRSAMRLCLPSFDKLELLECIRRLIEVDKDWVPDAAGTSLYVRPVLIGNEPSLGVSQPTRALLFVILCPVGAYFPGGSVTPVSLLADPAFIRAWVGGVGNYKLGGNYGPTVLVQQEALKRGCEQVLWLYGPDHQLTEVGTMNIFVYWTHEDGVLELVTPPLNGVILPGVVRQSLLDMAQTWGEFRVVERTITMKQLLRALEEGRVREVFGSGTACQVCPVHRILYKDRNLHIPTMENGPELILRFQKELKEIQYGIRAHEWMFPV
# Text: Endogenous Methylmalonyl-CoA Mutase (MUT) and Branched Chain Aminotransferase 1 (BCAT1) in A549 cells was knocked out by CRISPR/CAS9 using the targeting system from TransOMIC Technologies. The following guide sequence was cloned into pCLIP-ALL-EFS-Blast vector to target human MUT: […] (SEQ ID NO: 35). The following guide sequence was cloned into pCLIP-ALL-EFS-Puro vector to target human BCAT1: […] (SEQ ID NO: 36). The resulting plasmids were co-transfected into 293T cells with VSV-G, P-PEX, and Fugene-6. Lentivirus was harvested and A549 cells were first transduced with lentivirus targeting MUT and polybrene. After genetic selection with blasticidin clonal selection was performed and validated via western blot analysis to confirm MUT was no longer expressed. These MUT KO cells were then transduced with lentivirus targeting BCAT1 and polybrene. After selection with puromycin clonal selection was performed and clones were validated via western blot analysis to confirm BCAT1 was no longer expressed in these cells. The result was an engineered A549 cell line that expressed endogenous BCAT2.
# For KMV cell assays, on day 1, 25,000 cells/100 μL EMEM (10% FBS) were seeded in each well of a 96-well plate. On day 2, medium was replaced with 50 μL fresh EMEM (10% dialyzed FBS) containing 2× the assay concentration of experimental compound. After 15 minutes, 50 μL of 800 uM ^15N,^13C6-Isoleucine in EMEM (10% dialyzed FBS) was added to each well and incubated for 24 hours. On day 3, 50 μL of media from each well was collected and transferred to another 96-well plate for ^13C6-3-Methyl-2-Oxopentanoic Acid (KMV) analysis via LC-MS/MS. In the remaining assay wells 50 μL of Promega Glo CTG reagent was added and luminescence was measured as a cell viability readout.
# For LC-MS/MS analysis 5 μL of cell assay media from each well was transferred to a 96-well plate and 45 μL of ACN:0.1% NaOH (50:50, v/v)^+0.20 nM d8-KMV was added and mixed on a shaker. 15 μL was transferred to a new 96-well plate and 15 μL of 10 mg/mL PFBHA solution was added and mixed on the shaker. The reaction was placed on ice for 30 minutes and quenched with 10 μL of ACN: Acetone (50:50, v/v) on a shaker. The resulting mixture was diluted with 100 μL of ACN:0.1% NaOH (50:50, v/v) on a shaker. 10 μL of sample were injected on the Shimadzu 20AD LC-MS/MS to quantify ^13C6-KMV.
# Where a compound was tested multiple times, the average value of the tests is reported.
# BCAT2 [2] = biological target: T1, BCAT2; assay: BCAT2 in vitro enzyme inhibition assay (hBCAT2, glutamate dehydrogenase/diaphorase/resazurin coupled fluorescence read); assay type: biochemical; conditions: hBCAT2, 1 h preincubation at 25° C., one hour reaction; average where tested multiple times
# Outline: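 hBCAT2 (0.33 μg/mL in mix) preincubated 1 h at 25 °C with compound (top 100 μM, 3-fold, 10 points) in Tris pH 8.0/NaCl/BSA; substrate mix added (L-leucine, α-ketoglutarate, GDH, NAD, diaphorase, resazurin), quenched with SDS after 1 h, fluorescence Ex 540/Em 590; duplicates, repeat tests averaged.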
SMILES,IC50 (BCAT2 [1]) [µM],IC50 (BCAT2 [2]) [µM],"IC50 (BCAT2 [1]; engineered A549 cells, 24 hours, 13C6-KMV in media, average where tested multiple times, read-out: BCAT2 Cell Inhibition (IC50)) [µM]"
"CCOc1ncc(Cl)cc1C(=O)N[C@H]1CCC[C@@H](n2c(-c3ccccc3F)nc3cnc(-c4nc[nH]n4)cc32)C1 [Example 23, 5-chloro-2-ethoxy-N-((1S,3R)-3-(2-(2-fluorophenyl)-6-(1H-1,2,4-triazol-3-yl)-1H-imidazo[4,5-c]pyridin-1-yl)cyclohexyl)nicotinamide]",< 0.1,< 0.1,–
"O=C1c2cc(F)ccc2OCN1[C@H]1CCC[C@@H](n2c(-c3ccccc3F)nc3cnc(-c4nc[nH]n4)cc32)C1 [Example 204, 6-fluoro-3-((1S,3R)-3-(2-(2-fluorophenyl)-6-(1H-1,2,4-triazol-3-yl)-1H-imidazo[4,5-c]pyridin-1-yl)cyclohexyl)-2,3-dihydro-4H-benzo[e][1,3]oxazin-4-one]",< 0.1,< 0.1,–
"O=C(N[C@H]1CCC[C@@H](n2c(-c3ccccc3F)nc3cnc(-c4nc[nH]n4)cc32)[C@@H]1O)c1cc(F)ccc1F [Example 120, 2,5-difluoro-N-((1S,2R,3R)-3-(2-(2-fluorophenyl)-6-(1H-1,2,4-triazol-3-yl)-1H-imidazo[4,5-c]pyridin-1-yl)-2-hydroxycyclohexyl)benzamide]",< 0.1,< 0.1,–
"O=C(N[C@H]1CCC[C@@H](n2c(-c3ccccc3F)nc3cnc(-c4nc[nH]n4)cc32)C1)c1cc(Cl)ccc1CO [Example 40, 5-chloro-N-((1S,3R)-3-(2-(2-fluorophenyl)-6-(1H-1,2,4-triazol-3-yl)-1H-imidazo[4,5-c]pyridin-1-yl)cyclohexyl)-2-(hydroxymethyl)benzamide]",0.1 to 0.5,< 0.1,–
"CN1C[C@H](NC(=O)c2cc(Cl)ccc2OCCO)C[C@H](n2c(-c3ccccc3F)nc3cnc(-c4nc[nH]n4)cc32)C1 [Example 150, 5-chloro-N-((3R,5S)-5-(2-(2-fluorophenyl)-6-(1H-1,2,4-triazol-3-yl)-1H-imidazo[4,5-c]pyridin-1-yl)-1-methylpiperidin-3-yl)-2-(2-hydroxyethoxy)benzamide]",0.1 to 0.5,< 0.1,–
O=C(N[C@H]1CCC[C@@H](n2c(-c3ccccc3OC(F)F)nc3cnc(-c4nc[nH]n4)cc32)C1)c1cc(Cl)ccc1OCCO [compound 73],< 0.1,< 0.1,–
"CN(C)Cc1ccc(Cl)cc1C(=O)N[C@H]1CCC[C@@H](n2c(-c3ccccc3F)nc3cnc(-c4nc[nH]n4)cc32)C1 [Example 37, 5-chloro-2-((dimethylamino)methyl)-N-((1S,3R)-3-(2-(2-fluorophenyl)-6-(1H-1,2,4-triazol-3-yl)-1H-imidazo[4,5-c]pyridin-1-yl)cyclohexyl)benzamide]",0.5 to 1,< 0.1,–
O=C1c2cc(F)ccc2CN1[C@H]1CCC[C@@H](n2c(-c3c(F)cccc3OC(F)F)nc3ccc(-c4nc[nH]n4)cc32)[C@@H]1O [compound 240],0.1 to 0.5,< 0.1,–
"CC(C)(O)COc1ccc(Cl)cc1C(=O)N[C@H]1CCC[C@@H](n2c(-c3ccccc3F)nc3cnc(-c4nc[nH]n4)cc32)C1 [Example 39, 5-chloro-N-((1S,3R)-3-(2-(2-fluorophenyl)-6-(1H-1,2,4-triazol-3-yl)-1H-imidazo[4,5-c]pyridin-1-yl)cyclohexyl)-2-(2-hydroxy-2-methylpropoxy)benzamide]",< 0.1,< 0.1,–
"Cc1coc(-c2cc3c(cn2)nc(-c2ccccc2OCCO)n3[C@@H]2CCC[C@H](N3Cc4ccc(F)cc4C3=O)C2)n1 [Example 181, 6-fluoro-2-((1S,3R)-3-(2-(2-(2-hydroxyethoxy)phenyl)-6-(4-methyloxazol-2-yl)-1H-imidazo[4,5-c]pyridin-1-yl)cyclohexyl)isoindolin-1-one]",< 0.1,< 0.1,–
"O=C(N[C@H]1CCC[C@@H](n2c(-c3ccccc3F)nc3cnc(-c4nc[nH]n4)cc32)C1)c1cc(Cl)ccc1F [Example 56, 5-chloro-2-fluoro-N-((1S,3R)-3-(2-(2-fluorophenyl)-6-(1H-1,2,4-triazol-3-yl)-1H-imidazo[4,5-c]pyridin-1-yl)cyclohexyl)benzamide]",< 0.1,< 0.1,–
O=C(N[C@@H]1C[C@@H](OC(F)F)C[C@H](n2c(-c3ccccc3F)nc3cnc(-c4ncn[nH]4)cc32)C1)c1cc(F)ccn1 (relative stereo) [compound 128],–,< 0.1,0.1 to 0.5
"N#Cc1ccc(F)cc1C(=O)N[C@H]1CCC[C@@H](n2c(-c3ccccc3F)nc3cnc(-c4nc[nH]n4)cc32)C1 [Example 98, 2-cyano-5-fluoro-N-((1S,3R)-3-(2-(2-fluorophenyl)-6-(4H-1,2,4-triazol-3-yl)-1H-imidazo[4,5-c]pyridin-1-yl)cyclohexyl)benzamide]",< 0.1,< 0.1,–
"COc1ccc(Cl)cc1C(=O)N[C@H]1CCC[C@@H](n2c(-c3ccccc3F)nc3cnc(-c4nc[nH]n4)cc32)C1 [Example 1, 5-chloro-N-((1S,3R)-3-(2-(2-fluorophenyl)-6-(1H-1,2,4-triazol-3-yl)-1H-imidazo[4,5-c]pyridin-1-yl)cyclohexyl)-2-methoxybenzamide]",< 0.1,< 0.1,–
"CN1C[C@H](NC(=O)c2cc(F)ccc2F)C[C@H](n2c(-c3ccccc3F)nc3cnc(-c4nc[nH]n4)cc32)C1 [Example 153, 2,5-difluoro-N-((3R,5S)-5-(2-(2-fluorophenyl)-6-(1H-1,2,4-triazol-3-yl)-1H-imidazo[4,5-c]pyridin-1-yl)-1-methylpiperidin-3-yl)benzamide]",0.1 to 0.5,< 0.1,–
"O=C(N[C@H]1CCC[C@@H](n2c(-c3ccccc3F)nc3cnc(-c4nc[nH]n4)cc32)C1)c1ccccc1F [Example 76, 2-fluoro-N-((1S,3R)-3-(2-(2-fluorophenyl)-6-(1H-1,2,4-triazol-3-yl)-1H-imidazo[4,5-c]pyridin-1-yl)cyclohexyl)benzamide]",< 0.1,< 0.1,–
"O=C1c2cc(F)ccc2CN1[C@H]1CCC[C@@H](n2c(-c3ccccc3F)nc3cnc(-c4ncccc4F)cc32)[C@@H]1O [Example 190, 6-fluoro-2-((1S,2S,3R)-3-(2-(2-fluorophenyl)-6-(3-fluoropyridin-2-yl)-1H-imidazo[4,5-c]pyridin-1-yl)-2-hydroxycyclohexyl)isoindolin-1-one]",< 0.1,–,–
"CN1C[C@H](NC(=O)c2cc(Cl)ccn2)C[C@H](n2c(-c3ccccc3OCCO)nc3cnc(-n4nccn4)cc32)C1 [Example 157, 4-chloro-N-((3R,5S)-5-(2-(2-(2-hydroxyethoxy)phenyl)-6-(2H-1,2,3-triazol-2-yl)-1H-imidazo[4,5-c]pyridin-1-yl)-1-methylpiperidin-3-yl)picolinamide]",–,< 0.1,–
"O=C(N[C@H]1CCC[C@@H](n2c(-c3ccccc3F)nc3ccc(-c4nc[nH]n4)cc32)[C@@H]1O)c1cc(F)ccc1F [Example 225, 2,5-difluoro-N-((1S,2R,3R)-3-(2-(2-fluorophenyl)-6-(1H-1,2,4-triazol-3-yl)-1H-benzo[d]imid-azol-1-yl)-2-hydroxycyclohex-yl)benzamide]",–,< 0.1,–
